Source: patent publication US20220257782A1, “PEPTIDE THERAPEUTICS FOR AUTOIMMUNE DISEASES AND INFLAMMATORY DISEASES” (GENESEN CO., LTD., priority 2019, published 2022)
Ends that are not written are not given here.

Tests used:
[1] = target: T1, TLR4 (Mus musculus, UniProt Q9QUK6); assay: Cytokine secretion (ELISA) in LPS-stimulated RAW264.7 cells; assay type: cell-based; details: FIG. 2E
T1 construct: endogenous in cells; host or cells: RAW264.7
T1 sequence (Q9QUK6 26-835): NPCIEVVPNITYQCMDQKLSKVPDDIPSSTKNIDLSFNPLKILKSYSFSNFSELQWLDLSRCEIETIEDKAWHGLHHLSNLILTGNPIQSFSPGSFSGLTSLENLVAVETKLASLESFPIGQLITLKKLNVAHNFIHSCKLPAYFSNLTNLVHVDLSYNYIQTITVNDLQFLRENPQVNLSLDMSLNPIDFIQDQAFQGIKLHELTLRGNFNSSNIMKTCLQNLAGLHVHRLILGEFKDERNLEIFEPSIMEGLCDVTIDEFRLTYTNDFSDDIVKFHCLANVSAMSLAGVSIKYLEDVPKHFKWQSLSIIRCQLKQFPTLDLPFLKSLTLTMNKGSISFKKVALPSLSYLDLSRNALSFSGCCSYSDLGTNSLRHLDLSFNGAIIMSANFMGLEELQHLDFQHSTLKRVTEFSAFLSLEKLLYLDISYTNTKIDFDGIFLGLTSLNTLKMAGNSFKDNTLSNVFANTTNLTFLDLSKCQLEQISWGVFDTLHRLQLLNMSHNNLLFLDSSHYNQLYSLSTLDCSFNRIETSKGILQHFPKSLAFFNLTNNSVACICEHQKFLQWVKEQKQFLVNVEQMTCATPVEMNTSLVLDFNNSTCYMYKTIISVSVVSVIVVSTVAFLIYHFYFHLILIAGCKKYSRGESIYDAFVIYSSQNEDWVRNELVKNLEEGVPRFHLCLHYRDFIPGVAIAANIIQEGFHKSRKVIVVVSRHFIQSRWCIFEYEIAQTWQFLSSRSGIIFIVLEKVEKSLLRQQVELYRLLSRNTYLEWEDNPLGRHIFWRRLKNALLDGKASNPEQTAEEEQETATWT
T1 sequence (Q9JHF9 19-160 partner): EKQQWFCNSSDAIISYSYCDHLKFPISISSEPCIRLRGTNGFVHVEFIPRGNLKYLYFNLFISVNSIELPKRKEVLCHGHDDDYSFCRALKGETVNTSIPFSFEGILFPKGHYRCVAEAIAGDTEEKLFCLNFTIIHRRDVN
Description: THP-1-derived macrophages and RAW264.7 cells were dispensed into 96-well plates (BD Biosciences) at a density of 2×10^5 cells/well and cultured overnight. After 24 hours of treatment, IL-6 secretion was analyzed using Mouse IL-6 ELISA MAX™ Deluxe (BioLegend, San Diego, Calif., USA), and TNF-α production was evaluated using the Mouse TNF alpha ELISA Ready-SET-GO!® kit (eBioscience, San Diego, Calif., USA). Then, the plate was analyzed at each wavelength using a microplate spectrophotometer system (Molecular Devices).

[2] = test system: IMQ-induced psoriasis in C57BL/6 mice; assay: Imiquimod-induced psoriasis mouse model; assay type: in vivo; details: FIG. 5D
Description: 6-7 week old C57BL/6 mice were purchased from Orient Bio Inc. (Seongnam, Korea). The mice were housed under specific pathogen-free conditions and provided ad libitum with a standard laboratory diet (STD). All the animal experiments were approved by the Institutional Animal Care and Use Committee (IACUC) of Ajou University (Approval No. 2017-0002). 62.5 mg of ALDARA™ cream (including 5% IMQ; Aldara, 3M Pharmaceutical LLC.) was applied for five consecutive days, resulting in symptoms similar to psoriasis. The normal group was not treated with IMQ but only injected with PBS. […] Factors such as erythema, scaling, wrinkles, and thickening were independently scored from 0 to 4: 0, none; 1, a little; 2, middle; 3, significant; 4, very prominent. Erythema, scaling, and thickness were scored under the close supervision of an experienced researcher. […]
A skin sample obtained from the dorsal lesion of each mouse was fixed in 4% paraformaldehyde solution, embedded in paraffin, and sectioned at a thickness of 7 μm on a glass slide. […] The thickness of the skin was measured using a Leica DMi8 fluorescence microscope which utilizes a Leica LAS X Hardware Configurator. IMQ-mediated inflammation in the skin was evaluated using a mouse-specific HRC/DAB Detection IHC Kit (Abcam, Cat. No. AB64259) with primary antibodies recognizing CD68, CD4, and IL-17. […]

[3] = test system: RAW264.7 cells; assay: Cell viability assay (MTT/MTS), RAW264.7 cells; assay type: cell-based, mouse; details: concentration of 50 μM or below; FIG. 2B
Description: (§1) HEK-BLUE™ hTLR4 cells were dispensed at a density of 5×10^4 cells/well, and RAW264.7 cells and THP-1 cells were dispensed thereinto at a density of 2×10^5 cells/well. All cells were cultured overnight in 96-well plates (BD Biosciences, San Jose, Calif., USA). Cell viability was determined using colorimetric […] (MTT) assay (Sigma-Aldrich) and/or MTS (3-(4,5-dimethylthiazol-2-yl)-5-(3-carboxymethoxyphenyl)-2-(4-sulfophenyl)-2H-tetrazolium) (Promega Madison, Wis., USA), which was performed as described previously (Kwon, H. K. et al., Toxicological sciences: an official journal of the Society of Toxicology 148, 204-219 (2015)).

[4] = test system: THP-1 cells; assay: Cell viability assay (MTT/MTS), THP-1 cells; assay type: cell-based, human; details: FIG. 2C
Description: as §1

[5] = test system: HEK-Blue™ hTLR4 cells; assay: Cell viability assay (MTT/MTS), HEK-BLUE hTLR4 cells; assay type: cell-based, human; details: FIG. 2A
Description: as §1

Substance: PFVYLI (cell penetrating peptide)
- inhibitory effect on LPS-stimulated RAW 264.7 cells [1]: did not show any inhibitory effect

Substance: RQIKIWFQNRRMKWKKPWCKYQMLQALT [MIP2]
- body weight [2]: no significant difference compared to PBS- and MTX-treated mice
- cytotoxic effect in RAW264.7 cells [3]: absence of a cytotoxic effect
- toxicity in THP-1 cells [4]: does not show toxicity
- toxicity in HEK-Blue hTLR4 cells [5]: do not show toxicity
